Source: the NIST ThermoML archive (doi:10.1016/j.jct.2005.10.013)

Experiment: mn = molality of the nth substance listed, in mol/kg
Conditions: 101 kPa, Liquid, Sing-around technique in a fixed-path interferometer

CN(CCO)CCO [N-methyldiethanolamine] + O
speed of sound [m/s]
Conditions | m1 = 0.3067 | m1 = 0.5017 | m1 = 0.7035 | m1 = 0.8982 | m1 = 1.088 | m1 = 1.357 | m1 = 1.652 | m1 = 2.161
283.15 K | 1474.2 | 1489.7 | 1505.1 | 1519.3 | 1532.8 | 1550.9 | 1569.5 | 1598.7
298.15 K | 1520 | 1532.9 | 1545.8 | 1557.6 | 1568.7 | 1583.6 | 1598.9 | 1622.6
313.15 K | 1547.7 | 1557.7 | 1567.7 | 1576.9 | 1585.5 | 1597 | 1608.8 | 1626.9
